Experimental data as given in ChEMBL document CHEMBL4616632, “Discovery of Cyclic Boronic Acid QPX7728, an Ultrabroad-Spectrum Inhibitor of Serine and Metallo-β-lactamases” (J Med Chem, 2020).

Tests used:
Klebsiella pneumoniae [1] = assay: Inhibition of Klebsiella pneumoniae KP1009 CTX-M-15 assessed as minimum concentration of compound required to reduce the MIC of aztreonam to 4 ug/ml
Escherichia coli [2] = assay: Inhibition of Escherichia coli EC302 TEM-10 assessed as minimum concentration of compound needed to reduce the MIC of aztreonam to 4 ug/ml
[3] = target: Beta-lactamase (Klebsiella pneumoniae) (UniProt Q93LQ9); assay: Inhibition of Klebsiella pneumoniae KP1004 KPC-2 assessed as minimum concentration of compound needed to reduce the MIC of aztreonam to 4 ug/ml
Chain of Beta-lactamase (Klebsiella pneumoniae) (Q93LQ9 as listed by the source): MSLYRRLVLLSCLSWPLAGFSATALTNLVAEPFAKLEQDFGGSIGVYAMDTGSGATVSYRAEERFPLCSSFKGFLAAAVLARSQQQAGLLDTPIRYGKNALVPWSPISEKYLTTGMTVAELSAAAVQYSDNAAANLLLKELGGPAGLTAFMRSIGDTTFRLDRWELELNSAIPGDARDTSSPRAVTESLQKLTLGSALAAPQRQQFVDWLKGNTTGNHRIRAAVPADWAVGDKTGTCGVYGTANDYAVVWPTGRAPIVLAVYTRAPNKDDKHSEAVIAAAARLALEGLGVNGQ

Enterobacter cloacae = assay: Inhibition of Enterobacter cloacae ECL1002 AmpC assessed as minimum concentration of compound needed to reduce the MIC of aztreonam to 4 ug/ml
Klebsiella pneumoniae [4] = assay: Inhibition of Klebsiella pneumoniae KP1081 NDM-1 assessed as minimum concentration of compound required to reduce the MIC of biapenem to 1 ug/ml
Klebsiella pneumoniae [5] = assay: Inhibition of Klebsiella pneumoniae KP1054 VIM-1 assessed as minimum concentration of compound required to reduce the MIC of biapenem to 1 ug/ml
Pseudomonas aeruginosa [6] = assay: Inhibition of Pseudomonas aeruginosa PAM 2035 AmpC assessed as minimum concentration of compound needed to reduce the MIC of aztreonam to 4 ug/ml
Klebsiella pneumoniae [7] = assay: Inhibition of Klebsiella pneumoniae KP1160 IMP-26 assessed as minimum concentration of compound needed to reduce the MIC of meropenem to 1 ug/ml
Escherichia coli [8] = assay: Inhibition of Escherichia coli ECM6625 SHV-5 assessed as minimum concentration of compound needed to reduce the MIC of aztreonam to 4 ug/ml
Escherichia coli [9] = assay: Inhibition of Escherichia coli ECM6619 TEM-10 assessed as minimum concentration of compound needed to reduce the MIC of aztreonam to 4 ug/ml
Acinetobacter baumannii = assay: Inhibition of Acinetobacter baumannii AB1053 OXA-72 assessed as minimum concentration of compound needed to reduce the MIC of meropenem to 8 ug/ml
[10] = target: Beta-lactamase OXA-23 (Acinetobacter baumannii) (UniProt Q9L4P2); assay: Inhibition of Acinetobacter baumannii AB1054 OXA-23 assessed as minimum concentration of compound needed to reduce the MIC of meropenem to 8 ug/ml
Chain of Beta-lactamase OXA-23 (Acinetobacter baumannii) (Q9L4P2 whole entry): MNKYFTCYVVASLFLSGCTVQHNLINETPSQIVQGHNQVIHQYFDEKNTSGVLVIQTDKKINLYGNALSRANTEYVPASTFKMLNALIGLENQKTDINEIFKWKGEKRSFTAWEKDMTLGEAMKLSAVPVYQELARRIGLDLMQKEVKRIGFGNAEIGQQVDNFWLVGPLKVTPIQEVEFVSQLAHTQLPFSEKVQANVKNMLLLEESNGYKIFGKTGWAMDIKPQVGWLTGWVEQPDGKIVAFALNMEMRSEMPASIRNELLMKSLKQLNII

Escherichia coli [11] = assay: Inhibition of Escherichia coli EC308 SHV-5 assessed as minimum concentration of compound needed to reduce the MIC of aztreonam to 4 ug/ml
Pseudomonas aeruginosa [12] = assay: Inhibition of Pseudomonas aeruginosa PAM 1032 KPC-2 assessed as minimum potentiating concentration of compound needed to reduce the MIC of biapenem by 64 fold
Pseudomonas aeruginosa [13] = assay: Inhibition of Pseudomonas aeruginosa PAM 1154 KPC-2 assessed as assessed as minimum potentiating concentration of compound needed to reduce the MIC of biapenem by 64 fold
[14] = Ratio of inhibition of Pseudomonas aeruginosa PAM 1032 KPC-2 assessed as minimum potentiating concentration of compound needed to reduce the MIC of biapenem by 64 fold to inhibition of Pseudomonas aeruginosa PAM 1154 KPC-2 assessed as assessed as minimum potentiating concentration of compound needed to reduce the MIC of biapenem by 64 fold
[15] = Oral bioavailability in rat at 50 to 75 mg/kg by HPLC/MS analysis; assay type: ADME, organism-based; conditions: in vivo
Escherichia coli [16] = assay: Inhibition of Escherichia coli KP308 SHV-5 assessed as minimum concentration of compound required to reduce the MIC of aztreonam to 4 ug/ml
[17] = Protein binding in human plasma; assay type: ADME, cell-free; conditions: read-out: PPB (converted)
[18] = target: Class A carbapenemase KPC-2 (Escherichia coli, UniProt A8DS27); assay: Inhibition of recombinant Escherichia coli KPC-2 using nitrocefin as substrate preincubated for 10 mins followed by substrate addition and measured every 10 secs for 10 mins by spectrophotometric analysis
Chain of Class A carbapenemase KPC-2 (A8DS27 whole entry): as the sequence (Q93LQ9 as listed by the source) above

[19] = Inhibition of recombinant Escherichia coli OXA-48 using nitrocefin as substrate preincubated for 10 mins followed by substrate addition and measured every 10 secs for 10 mins by spectrophotometric analysis
[20] = Inhibition of recombinant Escherichia coli NDM-1 using imipenem as substrate preincubated for 10 mins followed by substrate addition and measured every 30 secs for 30 mins by spectrophotometric analysis
[21] = target: Beta-lactamase (Klebsiella pneumoniae) (UniProt Q93LQ9); assay: Inhibition of Klebsiella pneumoniae KP1004 KPC-2 assessed as minimum concentration of compound needed to reduce the MIC of biapenem to 1 ug/ml
Klebsiella pneumoniae [22] = assay: Inhibition of Klebsiella pneumoniae KP1086 OXA-48 assessed as minimum concentration of compound needed to reduce the MIC of biapenem to 1 ug/ml
Klebsiella pneumoniae [23] = assay: Inhibition of Klebsiella pneumoniae KP1081 NDM-1 assessed as minimum concentration of compound needed to reduce the MIC of biapenem to 1 ug/ml
[24] = Oral bioavailability in rat; assay type: ADME, organism-based; conditions: in vivo
[25] = Drug metabolism in dog assessed as oxidative-deboronation by measuring 2-hydroxy-3-(2-hydroxyethyl)-6-methoxy-benzoic acid formation; assay type: ADME, Canis lupus familiaris
[26] = Drug metabolism in monkey assessed as oxidative-deboronation by measuring 2-hydroxy-3-(2-hydroxyethyl)-6-methoxy-benzoic acid formation; assay type: ADME, Macaca mulatta; conditions: rhesus monkey
[27] = Inhibition of recombinant Escherichia coli CTX-M-14 using nitrocefin as substrate preincubated for 10 mins followed by substrate addition measured every 10 secs for 10 mins by spectrophotometrically analysis
[28] = Inhibition of recombinant Escherichia coli SHV-12 using nitrocefin as substrate preincubated for 10 mins followed by substrate addition measured every 10 secs for 10 mins by spectrophotometrically analysis
[29] = Inhibition of recombinant Escherichia coli AmpC using nitrocefin as substrate preincubated for 10 mins followed by substrate addition measured every 10 secs for 10 mins by spectrophotometrically analysis
[30] = Inhibition of […] OXA-48 using nitrocefin as substrate preincubated for 10 mins followed by substrate addition measured every 10 secs for 10 mins by spectrophotometrically analysis
BlaVIM-1 = BlaVIM-1 (Escherichia coli, UniProt Q8GDC1); assay: Inhibition of recombinant Escherichia coli VIM-1 using nitrocefin as substrate preincubated for 10 mins followed by substrate addition measured every 10 secs for 10 mins by spectrophotometrically analysis
[31] = Inhibition of recombinant Escherichia coli IMP-1 using imipenem as substrate preincubated for 10 mins followed by substrate addition measured every 30 secs for 30 mins by spectrophotometrically analysis
[32] = Drug level in dog treated with disodium salt of 8-carboxylato-2,2-dihydroxy-7-methoxy-3,4-dihydro-2Hbenzo[e][1,2]oxaborinin-2-uide assessed as compound formation; assay type: ADME, Canis lupus familiaris; conditions: in vivo
[33] = Drug level in monkey treated with disodium salt of 8-carboxylato-2,2-dihydroxy-7-methoxy-3,4-dihydro-2Hbenzo[e][1,2]oxaborinin-2-uide assessed as compound formation; assay type: ADME, Macaca mulatta; conditions: rhesus monkey, in vivo
Beta-lactamase OXA-23 = Beta-lactamase OXA-23 (Acinetobacter baumannii, UniProt Q9L4P2); assay: Inhibition of Acinetobacter baumannii OXA-23 using nitrocefin as substrate preincubated for 10 mins followed by substrate addition measured every 10 secs for 10 mins by spectrophotometrically analysis
Chain of Beta-lactamase OXA-23 (Q9L4P2 whole entry): as the sequence (Q9L4P2 whole entry) above

CSCC(=O)N[C@H]1Cc2ccc(F)c(C(=O)O)c2OB1O
MEC (Klebsiella pneumoniae [1]): < 0.3 µg/mL
MEC (Escherichia coli [2]): 1.25 µg/mL
MEC [3]: 0.6 µg/mL
MEC (Enterobacter cloacae): 2.5 µg/mL
MEC (Klebsiella pneumoniae [4]): > 20 µg/mL
MEC (Klebsiella pneumoniae [5]): > 20 µg/mL
MEC (Pseudomonas aeruginosa [6]): 10 µg/mL
MEC (Klebsiella pneumoniae [7]): > 20 µg/mL
MEC (Escherichia coli [8]): 0.15 µg/mL
MEC (Escherichia coli [9]): 1.25 µg/mL
MEC (Acinetobacter baumannii): > 20 µg/mL
MEC [10]: > 20 µg/mL
MEC (Escherichia coli [11]): < 0.3 µg/mL
Activity (Pseudomonas aeruginosa [12]): 20 µg/mL
Activity (Pseudomonas aeruginosa [13]): 5 µg/mL
Ratio [14]: 4

COc1ccc2c(c1C(=O)OCOC(=O)OC(C)C)OB(O)[C@@H](Sc1nncs1)C2
bioavailability [15]: 94%

COc1ccc2c(c1C(=O)O)OB(O)[C@@H]1C[C@H]21
MEC (Klebsiella pneumoniae [1]): 0.3 µg/mL
MEC (Escherichia coli [16]): 0.08 µg/mL
MEC (Escherichia coli [2]): 0.08 µg/mL
MEC [3]: 0.16 µg/mL
MEC (Enterobacter cloacae): 0.3 µg/mL
MEC (Klebsiella pneumoniae [4]): 0.3 µg/mL
MEC (Klebsiella pneumoniae [5]): 0.04 µg/mL
MEC (Pseudomonas aeruginosa [6]): 2.5 µg/mL
MEC (Klebsiella pneumoniae [7]): 5 µg/mL
MEC (Escherichia coli [8]): 0.08 µg/mL
MEC (Escherichia coli [9]): 0.08 µg/mL
MEC (Acinetobacter baumannii): 0.6 µg/mL
MEC [10]: 1.25 µg/mL
fraction unbound [17]: 0.11

COc1ccc2c(c1C(=O)OCOC(=O)C(C)C)OB(O)[C@@H](Sc1nncs1)C2
bioavailability [15]: 100%

Nc1nnc(SCC(=O)N[C@H]2Cc3cccc(C(=O)O)c3OB2O)s1
Ki [18]: 21 nM
Ki [19]: 0.5 nM
Ki [20]: 7400 nM
Activity [21]: 0.08 µg/mL
Activity (Klebsiella pneumoniae [22]): 2.5 µg/mL
Activity (Klebsiella pneumoniae [23]): > 20 µg/mL

COc1ccc2c(c1C(=O)OCOC(=O)C(C)(C)C)OB(O)[C@@H](Sc1nncs1)C2
bioavailability [15]: 100%

COc1ccc2c(c1C(=O)O)OB(O)CC2
MEC (Klebsiella pneumoniae [1]): 0.6 µg/mL
MEC [3]: 0.16 µg/mL
MEC (Enterobacter cloacae): 0.3 µg/mL
MEC (Klebsiella pneumoniae [4]): 0.6 µg/mL
MEC (Klebsiella pneumoniae [5]): 0.6 µg/mL
MEC (Pseudomonas aeruginosa [6]): 1.25 µg/mL
MEC (Klebsiella pneumoniae [7]): > 20 µg/mL
MEC (Escherichia coli [8]): 0.6 µg/mL
MEC (Escherichia coli [9]): 0.08 µg/mL
MEC (Acinetobacter baumannii): 0.6 µg/mL
MEC [10]: 0.6 µg/mL
bioavailability [24]: 50%
Drug metabolism [25]: Metabolite_Detected
Drug metabolism [26]: Metabolite_Detected

COc1ccc2c(c1C(=O)O)OB(O)[C@@H](Sc1nncs1)C2
MEC (Klebsiella pneumoniae [1]): 2.5 µg/mL
MEC (Escherichia coli [16]): 0.3 µg/mL
MEC (Escherichia coli [2]): 2.5 µg/mL
MEC [3]: 1.25 µg/mL
MEC (Enterobacter cloacae): 10 µg/mL
MEC (Klebsiella pneumoniae [4]): 0.3 µg/mL
MEC (Klebsiella pneumoniae [5]): 0.3 µg/mL
MEC (Pseudomonas aeruginosa [6]): 10 µg/mL
MEC (Klebsiella pneumoniae [7]): 5 µg/mL
MEC (Escherichia coli [8]): 0.3 µg/mL
MIC (Escherichia coli [9]): 2.5 µg/mL
MEC (Acinetobacter baumannii): > 20 µg/mL
MEC [10]: > 20 µg/mL
bioavailability [15]: 3%

CSCC(=O)N[C@H]1Cc2cccc(C(=O)O)c2OB1O
MEC (Klebsiella pneumoniae [1]): 0.6 µg/mL
MEC (Escherichia coli [2]): 5 µg/mL
MEC [3]: 0.6 µg/mL
MEC (Enterobacter cloacae): 0.6 µg/mL
MEC (Pseudomonas aeruginosa [6]): 2.5 µg/mL
MEC (Escherichia coli [11]): < 0.3 µg/mL
Activity (Pseudomonas aeruginosa [12]): 80 µg/mL
Activity (Pseudomonas aeruginosa [13]): 5 µg/mL
Ratio [14]: 8

CSCC(=O)N[C@H]1Cc2ccc(O)c(C(=O)O)c2OB1O
MEC (Klebsiella pneumoniae [1]): 1.25 µg/mL
MEC (Escherichia coli [2]): 2.5 µg/mL
MEC [3]: 1.25 µg/mL
MEC (Enterobacter cloacae): 2.5 µg/mL
MEC (Pseudomonas aeruginosa [6]): 5 µg/mL
MEC (Escherichia coli [11]): < 0.3 µg/mL
Activity (Pseudomonas aeruginosa [12]): 40 µg/mL
Activity (Pseudomonas aeruginosa [13]): 2.5 µg/mL
Ratio [14]: 16

CCOC(=O)OCOC(=O)c1c(OC)ccc2c1OB(O)[C@@H](Sc1nncs1)C2
bioavailability [15]: 64%

NC(=O)[C@@H]1CC[C@@H]2CN1C(=O)N2OS(=O)(=O)O [AVIBACTAM]
Ki [18]: 11 nM
Ki [19]: 27 nM
Ki [20]: 40000 to 80000 nM
Ki [27]: 0.41 nM
Ki [28]: 0.27 nM
Ki [29]: 10 nM
Ki [30]: 27 nM
Ki (BlaVIM-1): > 40000 nM
Ki [31]: > 40000 nM
MEC [3]: < 0.04 µg/mL
MEC (Klebsiella pneumoniae [4]): > 20 µg/mL
Activity [21]: < 0.04 µg/mL
Activity (Klebsiella pneumoniae [22]): 1.25 µg/mL
Activity (Klebsiella pneumoniae [23]): > 20 µg/mL

COc1ccc(CCO)c(O)c1C(=O)O
Drug uptake [32]: Active
Drug uptake [33]: Active

COc1ccc2c(c1C(=O)OCOC(C)=O)OB(O)[C@@H](Sc1nncs1)C2
bioavailability [15]: 52%

O=C(O)C[C@@H]1CC[C@H](NC(=O)Cc2cccs2)B(O)O1 [VABORBACTAM]
Ki [18]: 56 nM
Ki [20]: > 40000 nM
Ki [27]: 33 nM
Ki [28]: 21 nM
Ki [29]: 35 nM
Ki [30]: 14000 nM
Ki (Beta-lactamase OXA-23): > 40000 nM
Ki (BlaVIM-1): > 40000 nM
Ki [31]: > 40000 nM

O=C(O)c1cccc2c1OB(O)[C@@H](Sc1nncs1)C2
Ki [18]: 150 nM
Ki [19]: 1.4 nM
Ki [20]: 24 nM
MEC (Klebsiella pneumoniae [1]): > 20 µg/mL
MEC (Escherichia coli [16]): 2.5 µg/mL
MEC (Escherichia coli [2]): 20 µg/mL
MEC [3]: 10 µg/mL
MEC (Enterobacter cloacae): 20 µg/mL
MEC (Klebsiella pneumoniae [4]): 0.6 µg/mL
MEC (Klebsiella pneumoniae [5]): 2.5 µg/mL
MEC (Klebsiella pneumoniae [7]): 40 µg/mL
Activity [21]: 0.16 µg/mL
Activity (Klebsiella pneumoniae [22]): 5 µg/mL
Activity (Klebsiella pneumoniae [23]): 0.6 µg/mL
